Data taken from patent US20240140970A1, “A […], AND PREPARATION METHOD AND USE THEREOF” (ASCENTAWITS PHARMACEUTICALS, LTD., priority 2021, published 2024).
Where “and” joins values, the source holds several entries; their conditions need not be identical. Equal entries are not always repeated.

Key:
[1] = Stability of AST-2660 in human urine at −20° C. and −70° C. for one month (LC-MS/MS); format: in vitro ADME
Protocol: (§1) The detection method established in example 6 was used to detect the content of AST-2660 in the human urine to be tested.
(§2) Matrix: the mixed normal human urine containing an additive Na2HPO4·12H2O. • a: the internal standard working solution: AST-2660-D8 was taken, dissolved with methanol, and diluted to prepare a solution containing about 100 ng per 1 ml. • b: the solution to be tested (no internal standard compound was added to the solution to be tested at this time): it was obtained by taking a blood sample to be tested. • c: the standard working solution (no internal standard compound was added to the standard working solution at this time): an appropriate amount of AST-2660 was taken and accurately weighed, dissolved with methanol and diluted to prepare a solution containing about 1.0 mg per 1 ml, which was used as the standard working stock solution. An appropriate amount of the standard working stock solution was taken, added with the matrix and diluted to prepare standard working solutions with different concentrations containing about 200 ng, 160 ng, 100 ng, 50 ng, 10 ng, 2.0 ng, 1.0 ng and 0.5 ng per 1 ml, respectively. (The solution was stored at −70° C.) • d: the quality control sample solution: an appropriate amount of AST-2660 was taken and accurately weighed, dissolved with methanol, and diluted to prepare a solution containing about 10 μg per 1 ml, which was used as the quality control working stock solution. An appropriate amount of the quality control working stock solution was taken, and added with the matrix to prepare quality control working solutions with different concentrations containing about 150 ng, 60 ng, 15 ng, 1.5 ng and 0.5 ng per 1 ml. (The solution was stored at −70° C.)
(§3) The solution to be tested, the standard working solution and the quality control sample solution were thawed at room temperature and mixed uniformly. 100 μl of the above solution was respectively taken, added with 20 μl of the internal standard and 500 μl of methanol, and vortexed for 3 minutes to mix uniformly, and then centrifuged for 30 minutes at 2143 rcf. 450 μl of supernatant was taken, and then centrifuged for 10 minutes in a 96-well plate at 2143 rcf. It was obtained by taking 300 μl of supernatant.
(§4) Liquid phase conditions: A SHARC 1, 3 μm, 2.1*50 mm or chromatograph column with equivalent performance was used; methanol solution containing low content of ammonium acetate was used; mobile phase B was acetonitrile; the gradient elution was performed according to the following table; column temperature: 20° C.; injection volume: 5 μl.
(§5) Mass spectrometric conditions: electrospray ion source with negative ion scanning mode; spray potential: −4500 V; ion source temperature: 500° C.; collision energy (CE): −22 eV; declustering potential (DP): −55V; entrance potential (EP): −10V; collision chamber exit potential (CXP): −16V; dwell time: 100 ms; high purity nitrogen was used for all gases; AST-2660 ions pairs: m/z 147.0→m/z 62.9; the internal standard AST-2660-D8 ion pairs: m/z 155.0→m/z 62.9.
(§6) The AST-2660 standard working solution, blank sample, zero concentration sample, solution to be tested and quality control working solution with different concentrations after extraction were respectively taken and injected into LC-MS/MS for detection.
(§7) Calculation results: the relationship function y=f (x) of the ratio of the peak area of AST-2660 to that of the internal standard was obtained from AST-2660 standard working solutions with different concentrations. The ratio of the peak area of AST-2660 to that of the internal standard was determined from the solution to be tested after extraction, and substituted into the relationship function y=f (x) to calculate the concentration of the metabolite II in the solution to be tested.

[2] = Freeze/thaw stability of AST-2660 in human urine (LC-MS/MS); format: in vitro ADME
Protocol: as §1, §2, §3, §4, §5, §6, §7

[3] = DilQC (10-fold dilution) nominal 1500 ng/ml, 32 days at −20° C.
[4] = DilQC (10-fold dilution) nominal 1500 ng/ml, 32 days at −70° C.
[5] = QC1 nominal 1.50 ng/ml, 32 days at −70° C. (actually tested on day 34)
[6] = QC4 nominal 150 ng/ml, 32 days at −20° C.
[7] = QC4 nominal 150 ng/ml, 32 days at −70° C.
[8] = human urine, DilQC (10-fold dilution) nominal 1500 ng/ml, 3 freeze/thaw cycles at −70° C.
[9] = human urine, DilQC (10-fold dilution) nominal 1500 ng/ml, 5 freeze/thaw cycles at −70° C.
[10] = human urine, QC1 nominal 1.50 ng/ml, 3 freeze/thaw cycles at −70° C.
[11] = human urine, QC1 nominal 1.50 ng/ml, 5 freeze/thaw cycles at −70° C.
[12] = human urine, QC4 nominal 150 ng/ml, 3 freeze/thaw cycles at −70° C.
[13] = human urine, QC4 nominal 150 ng/ml, 5 freeze/thaw cycles at −20° C.
[14] = human urine, QC4 nominal 150 ng/ml, 5 freeze/thaw cycles at −70° C.

## O=P([O-])(N1CC1)N1CC1.[Na+] [AST-2660]
[1]; 32 days of storage at −20° C.
  reduction of AST-2660 content: ~90%
[1]; 32 days of storage at −70° C.
  change of AST-2660 content (in words): almost no reduction
[1]; [3]
  AST-2660 concentration, Mean value: 7.23 ng/mL
  AST-2660 concentration, single replicates: 6.87 ng/mL and 7.70 ng/mL and 7.73 ng/mL and 6.60 ng/mL
  RE (%) vs nominal: −99.5%
[1]; [4]
  AST-2660 concentration, Mean value: 1483 ng/mL
  AST-2660 concentration, single replicates: 1570 ng/mL and 1400 ng/mL and 1470 ng/mL and 1490 ng/mL
  RE (%) vs nominal: −1.2%
[1]; QC1 nominal 1.50 ng/ml, 32 days at −20° C.
  AST-2660 concentration, single replicates: <LLOQ (0.500) ng/ml
[1]; [5]
  AST-2660 concentration, Mean value: 1.71 ng/mL
  AST-2660 concentration, single replicates: 1.53 ng/mL and 1.97 ng/mL and 1.72 ng/mL and 1.60 ng/mL
  RE (%) vs nominal: 13.7%
[1]; [6]
  AST-2660 concentration, Mean value: 13.4 ng/mL
  AST-2660 concentration, single replicates: 13.1 ng/mL and 12.4 ng/mL and 12.9 ng/mL and 15.2 ng/mL
  RE (%) vs nominal: −91.1%
[1]; [7]
  AST-2660 concentration, Mean value: 161 ng/mL
  AST-2660 concentration, single replicates: 155 ng/mL and 159 ng/mL and 161 ng/mL and 168 ng/mL
  RE (%) vs nominal: 7.2%
[2]; freezing/thawing at −70° C. for up to 3 cycles, 1.5, 150 and 1500 ng/ml
  RE (accuracy), range over three concentration levels: RE: −11.8% to 12.5%
[2]; [8]
  AST-2660 concentration, Mean value: 1540 ng/mL
  AST-2660 concentration, single replicates: 1650 ng/ml and 1500 ng/ml (2×) and 1510 ng/ml
  RE (%) vs nominal: 2.7%
[2]; human urine, DilQC (10-fold dilution) nominal 1500 ng/ml, 5 freeze/thaw cycles at −20° C.
  AST-2660 concentration, single replicates: <LLOQ (5.00) ng/ml
[2]; [9]
  AST-2660 concentration, Mean value: 1508 ng/mL
  AST-2660 concentration, single replicates: 1490 ng/ml and 1500 ng/ml (2×) and 1540 ng/ml
  RE (%) vs nominal: 0.5%
[2]; [10]
  AST-2660 concentration, Mean value: 1.60 ng/mL
  AST-2660 concentration, single replicates: 1.69 ng/mL and 1.72 ng/mL and 1.47 ng/mL and 1.51 ng/mL
  RE (%) vs nominal: 6.5%
[2]; human urine, QC1 nominal 1.50 ng/ml, 5 freeze/thaw cycles at −20° C.
  AST-2660 concentration, single replicates: <LLOQ (0.500) ng/ml
[2]; [11]
  AST-2660 concentration, Mean value: 1.73 ng/mL
  AST-2660 concentration, single replicates: 2.14 ng/mL and 1.58 ng/mL and 1.68 ng/mL and 1.52 ng/mL
  RE (%) vs nominal: 15.3%
[2]; [12]
  AST-2660 concentration, Mean value: 149 ng/mL
  AST-2660 concentration, single replicates: 145 ng/ml and 148 ng/ml (2×) and 154 ng/ml
  RE (%) vs nominal: −0.8%
[2]; [13]
  AST-2660 concentration, Mean value: 13 ng/mL
  AST-2660 concentration, single replicates: 12.2 ng/mL and 13.0 ng/mL and 12.3 ng/mL and 12.5 ng/mL
  RE (%) vs nominal: −91.7%
[2]; [14]
  AST-2660 concentration, Mean value: 173 ng/mL
  AST-2660 concentration, single replicates: 172 ng/ml (2×) and 169 ng/ml and 178 ng/ml
  RE (%) vs nominal: 15.2%
[2]; human urine, freeze-thaw process from −20° C. to room temperature
  reduction of AST-2660 content: ~90%
[2]; human urine, freeze-thaw process from −70° C. to room temperature
  change of AST-2660 content (in words): almost no reduction
